In general, melting point refers to the temperature, or range, at which the solid turns liquid.

This is an account of results in US20080153850A1, “Adamantyl Derivates as P2x7 Receptor Antagonists” (AstraZeneca AB, priority 2004, published 2008).

Structures can show the parent of a compound that is named as a salt.

For the compound `O=C(NCC12CC3CC(CC(C3)C1)C2)c1cc(-c2nccnc2C(=O)O)ccc1Cl` (as salt: sodium) [Example 6, 3-[4-Chloro-3-[[(tricyclo[3.3.1.1^3,7]dec-1-ylmethyl)amino]carbonyl]phenyl]-2-pyrazinecarboxylic acid, monosodium salt], the melting point is 194 to 195 °C (dec.).
Under `O=C(O)Cc1ncccc1-c1ccc(Cl)c(C(=O)NCC23CC4CC(CC(C4)C2)C3)c1` (as salt: sodium) [Example 58, 3-[4-Chloro-3-[[(tricyclo[3.3.1.1^3,7]dec-1-ylmethyl)amino]carbonyl]phenyl]-2-pyridineacetic acid, monosodium salt] stands 186 to 187 °C (dec.); under `O=C(O)c1cccc(-c2ccc(Cl)c(C(=O)NCC34CC5CC(CC(C5)C3)C4)c2)c1` [Example 2, 4′-Chloro-3′-[[(tricyclo[3.3.1.1^3,7]dec-1-ylmethyl)amino]carbonyl]-[1,1′-biphenyl]-3-carboxylic acid], 255 to 257 °C.
`O=C(NCC12CC3CC(CC(C3)C1)C2)c1cc(-c2ccccc2C(=O)O)ccc1Cl` [Example 3, 4′-Chloro-3′-[[(tricyclo[3.3.1.1^3,7]dec-1-ylmethyl)amino]carbonyl]-[1,1′-biphenyl]-2-carboxylic acid] registered a melting point of 228 to 230 °C.
Under `N#CNc1cncc(-c2ccc(Cl)c(C(=O)NCC34CC5CC(CC(C5)C3)C4)c2)n1` [Example 4, 2-Chloro-5-[6-(cyanoamino)pyrazinyl]-N-(tricyclo[3.3.1.1^3,7]dec-1-ylmethyl)-benzamide] stands 215 to 220 °C (dec.); under `N#CNc1nccnc1-c1ccc(Cl)c(C(=O)NCC23CC4CC(CC(C4)C2)C3)c1` [Example 5, 2-Chloro-5-[3-(cyanamino)pyrazinyl]-N-(tricyclo[3.3.1.1^3,7]dec-1-ylmethyl)-benzamide], 110 to 115 °C (dec.); under `O=C(O)c1cccc(-c2cc(C(=O)NCC34CC5CC(CC(C5)C3)C4)c(Cl)cn2)c1` [Example 7, 3-[5-Chloro-4-[[(tricyclo [3.3.1.1^3,7]dec-1-ylmethyl)amino]carbonyl]-2-pyridinyl]-benzoic acid], 200 to 202 °C.
Under `CS(=O)(=O)Nc1nccnc1-c1ccc(Cl)c(C(=O)NCC23CC4CC(CC(C4)C2)C3)c1` [Example 8, 2-Chloro-5-[3-[(methylsulfonyl)amino)pyrazinyl]-N-(tricyclo[3.3.1.1^3,7]dec-1-ylmethyl)-benzamide] stands 245 °C (dec.).
On to `O=C(NCC12CC3CC(CC(C3)C1)C2)c1cc(-c2nccnc2-c2nnn[nH]2)ccc1Cl` [Example 9, 2-Chloro-5-[3(1-H-tetrazol-5-yl)pyrazinyl]-N-(tricyclo[3.3.1.1^3,7]dec-1-ylmethyl)-benzamide], for which the melting point is 254 °C (dec.).
Under `O=C(NCC12CC3CC(CC(C3)C1)C2)c1cc(-c2ncccc2C(=O)O)ccc1Cl` [Example 10, 2-[4-Chloro-3-[[(tricyclo[3.3.1.1^3,7]dec-1-ylmethyl)amino]carbonyl]phenyl]-3-pyridinecarboxylic acid] stands 169 to 172 °C; under `O=C(O)c1ccnc(-c2ccc(Cl)c(C(=O)NCC34CC5CC(CC(C5)C3)C4)c2)c1` [Example 12, 2-[4-Chloro-3-[[(tricyclo[3.3.1.1^3,7]dec-1-ylmethyl)amino]carbonyl]phenyl]-4-pyridinecarboxylic acid], 284 to 287 °C.
Under `Cc1ccc(C(=O)O)c(-c2ccc(Cl)c(C(=O)NCC34CC5CC(CC(C5)C3)C4)c2)n1` [Example 13, 2-[4-Chloro-3-[[(tricyclo[3.3.1.1^3,7]dec-1-ylmethyl)amino]carbonyl]phenyl]-6-methyl-3-pyridinecarboxylic acid] stands 209 to 211 °C; under `C[C@H](Oc1ccccc1-c1ccc(Cl)c(C(=O)NCC23CC4CC(CC(C4)C2)C3)c1)C(=O)O` [Example 14, (2S)-2-[[4′-chloro-3′-[[(tricyclo[3.3.1.1^3,7]dec-1-ylmethyl)amino]carbonyl][1,1′-biphenyl]-2-yl]oxy]-propanoic acid], 107 to 110 °C; under `O=C(O)COc1ccccc1-c1ccc(Cl)c(C(=O)NCC23CC4CC(CC(C4)C2)C3)c1` [Example 15, [[4′-Chloro-3′-[[(tricyclo[3.3.1.1^3,7]dec-1-ylmethyl)amino]carbonyl][1,1′-biphenyl]-2-yl]oxy]-acetic acid], 208 to 210 °C.
Under `O=C(O)CCOc1ccccc1-c1ccc(Cl)c(C(=O)NCC23CC4CC(CC(C4)C2)C3)c1` [Example 16, 3-[[4′-Chloro-3′-[[(tricyclo[3.3.1.1^3,7]dec-1-ylmethyl)amino]carbonyl][1,1′-biphenyl]-2-yl]oxy]-propanoic acid] stands 163 to 164 °C.
Compound `O=C(NCC12CC3CC(CC(C3)C1)C2)c1cc(-c2ncc(Cl)cc2C(=O)O)ccc1Cl` [Example 17, 5-Chloro-2-[4-chloro-3-[[(tricyclo[3.3.1.1^3,7]dec-1-ylmethyl)amino]carbonyl]phenyl]-3-pyridinecarboxylic acid] came in with a melting point of 165 to 168 °C.
As for `Cc1cccc(C(=O)O)c1-c1ccc(Cl)c(C(=O)NCC23CC4CC(CC(C4)C2)C3)c1` [Example 18, 4′-Chloro-6-methyl-3′-[[(tricyclo[3.3.1.1^3,7]dec-1-ylmethyl)amino]carbonyl]-[1,1′-biphenyl]-2-carboxylic acid], the figure is 151 to 154 °C; as for `O=C(NCC12CC3CC(CC(C3)C1)C2)c1cc(-c2ccsc2C(=O)O)ccc1Cl` [Example 19, 3-[4-Chloro-3-[[(tricyclo[3.3.1.1^3,7]dec-1-ylmethyl)amino]carbonyl]phenyl]-2-thiophenecarboxylic acid], 140 to 143 °C; as for `O=C(O)c1cccc(-c2ccc(Cl)c(C(=O)NCC34CC5CC(CC(C5)C3)C4)c2)n1` [Example 20, 6-[4-Chloro-3-[[(tricyclo[3.3.1.1^3,7]dec-1-ylmethyl)amino]carbonyl]phenyl]-2-pyridinecarboxylic acid], 170 to 173 °C.
Consider `O=C(O)c1coc(-c2ccc(Cl)c(C(=O)NCC34CC5CC(CC(C5)C3)C4)c2)n1` [Example 23, 2-[4-Chloro-3-[[(tricyclo[3.3.1.1^3,7]dec-1-ylmethyl)amino]carbonyl]phenyl]-4-oxazolecarboxylic acid], for which the melting point lay within 254 to 257 °C.
Under `Cc1ccc(-c2ccc(Cl)c(C(=O)NCC34CC5CC(CC(C5)C3)C4)c2)c(C(=O)O)c1` [Example 24, 4′-Chloro-4-methyl-3′-[[(tricyclo[3.3.1.1^3,7]dec-1-ylmethyl)amino]carbonyl]-[1,1′-biphenyl]-2-carboxylic acid] stands 214 to 216 °C; under `CS(=O)(=O)NC(=O)c1cccc(-c2ccc(Cl)c(C(=O)NCC34CC5CC(CC(C5)C3)C4)c2)n1` [Example 25, 6-[4-Chloro-3-[[(tricyclo[3.3.1.1^3,7]dec-1-ylmethyl)amino]carbonyl]phenyl]-N-(methylsulfonyl)-2-pyridinecarboxamide], 160 to 162 °C; under `O=C(O)CNc1ncccc1-c1ccc(Cl)c(C(=O)NCC23CC4CC(CC(C4)C2)C3)c1` [Example 26, N-[3-[4-Chloro-3-[[(tricyclo[3.3.1.1^3,7]dec-1-ylmethyl)amino]carbonyl]phenyl]-2-pyridinyl]-glycine], 160 to 164 °C.
In the case of `CS(=O)(=O)Nc1cccc(-c2ccc(Cl)c(C(=O)NCC34CC5CC(CC(C5)C3)C4)c2)n1` [Example 27, 2-Chloro-5-[6-[(methylsulfonyl)amino]-2-pyridinyl]-N-(tricyclo[3.3.1.1^3,7]dec-1-ylmethyl)-benzamide], the melting point is 115 to 120 °C.
As for `O=C(O)COc1ncccc1-c1ccc(Cl)c(C(=O)NCC23CC4CC(CC(C4)C2)C3)c1` [Example 28, [[3-[4-Chloro-3-[[(tricyclo[3.3.1.1^3,7]dec-1-ylmethyl)amino]carbonyl]phenyl]-2-pyridinyl]oxy]-acetic acid], the figure is 226 to 229 °C; as for `O=C(NCC12CC3CC(CC(C3)C1)C2)c1cc(-c2ncccc2OCc2nnn[nH]2)ccc1Cl` [Example 29, 2-Chloro-5-[3-(1H-tetrazol-5-ylmethoxy)-2-pyridinyl]-N-(tricyclo[3.3.1.1^3,7]dec-1-ylmethyl)-benzamide], 122 to 126 °C.
Under `COc1ccc(-c2ccc(Cl)c(C(=O)NCC34CC5CC(CC(C5)C3)C4)c2)c(C(=O)O)c1` [Example 30, 4′-Chloro-4-methoxy-3′-[[(tricyclo[3.3.1.1^3,7]dec-1-ylmethyl)amino]carbonyl]-[1,1′-biphenyl]-2-carboxylic acid] stands 219 to 221 °C; under `Cn1cc(-c2ccc(Cl)c(C(=O)NCC34CC5CC(CC(C5)C3)C4)c2)c(C(=O)O)n1` [Example 31, 4-[4-Chloro-3-[[(tricyclo[3.3.1.1^3,7]dec-1-ylmethyl)amino]carbonyl]phenyl]-1-methyl-1H-pyrazole-3-carboxylic acid], 166 to 175 °C (dec.).
As for `Cn1ncc(-c2ccc(Cl)c(C(=O)NCC34CC5CC(CC(C5)C3)C4)c2)c1C(=O)O` [Example 32, 4-[4-Chloro-3-[[(tricyclo[3.3.1.1^3,7]dec-1-ylmethyl)amino]carbonyl]phenyl]-1-methyl-1H-pyrazole-5-carboxylic acid], the figure is 187 to 190 °C (dec.); as for `CN(CC(=O)O)c1nccnc1-c1ccc(Cl)c(C(=O)NCC23CC4CC(CC(C4)C2)C3)c1` [Example 33, N-[3-[4-Chloro-3-[[(tricyclo[3.3.1.1^3,7]dec-1-ylmethyl)amino]carbonyl]phenyl]pyrazinyl]-N-methyl-glycine], 151 to 153 °C (dec.).
In turn, `O=C(NCC12CC3CC(CC(C3)C1)C2)c1cc(-c2nccnc2N2CCC(C(=O)O)CC2)ccc1Cl` [Example 34, 1-[3-[4-Chloro-3-[[(tricyclo[3.3.1.1^3,7]dec-1-ylmethyl)amino]carbonyl]phenyl]pyrazinyl]-4-piperidinecarboxylic acid] yielded a melting point of 136 to 140 °C.
Under `O=C(NCC12CC3CC(CC(C3)C1)C2)c1cc(-c2c(F)cccc2C(=O)O)ccc1Cl` [Example 35, 4′-Chloro-6-fluoro-3′-[[(tricyclo[3.3.1.1^3,7]dec-1-ylmethyl)amino]carbonyl]-[1,1′-biphenyl]-2-carboxylic acid] stands 108 to 113 °C.
